Test results taken from patent publication US9708314B2, “Heterocyclic amide compound” (NISSAN CHEMICAL INDUSTRIES, LTD., priority 2013, dated 2017).

What was measured:
Format in all cases: in vivo
Leptochloa chinensis = assay: Test Example 3: herbicidal effect by application to foliage (Wagner pot, water depth 0.1-0.5 cm); settings: Nineteenth Table; application to foliage; application herbicide amount 141 g/ha
In short: (§1)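 Rice-field weeds and directly sown rice were grown 14 days in flooded alluvial soil (water depth 0.1–0.5 cm) at 25–30 °C in a greenhouse. An emulsion formulation diluted to the stated g/ha rate was sprayed onto stems and leaves. Effects were scored on a 0–5 scale (herbicidal ratio bands) three weeks after treatment.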

Cyperus difformis = assay: as above; settings: Nineteenth Table; application to foliage; application herbicide amount 141 g/ha
In short: as §1

[1] = system: Echinochloa crus-galli var. crus-galli; assay: as above; settings: Nineteenth Table; application to foliage; application herbicide amount 141 g/ha
In short: as §1

Alopecurus myosuroides = assay: Test Example 4: herbicidal effect by application to foliage (diluvial soil, plastic box); settings: application to foliage, 141 g/ha
In short: (§2)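 Scores run from 0 (herbicidal ratio ≤5%) to 5 (≥90%, almost fully withered) and were assessed three weeks after foliar spraying. Seedlings had been raised for 14 days at 25-30° C in sterilized diluvial soil before treatment, with the emulsion diluted in water to the stated g/ha dose.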

Veronica persica = assay: as above; settings: application to foliage, 141 g/ha
In short: as §2

Galium spurium = assay: as above; settings: application to foliage, 141 g/ha
In short: as §2

Apera spica-venti. = assay: as above; settings: application to foliage, 141 g/ha
In short: as §2

Setaria viridis = assay: as above; settings: application to foliage, 141 g/ha
In short: as §2

Avena fatua = assay: as above; settings: application to foliage, 141 g/ha
In short: as §2

Abutilon theophrasti = assay: as above; settings: application to foliage, 141 g/ha
In short: as §2

[2] = system: Echinochloa crus-galli var. crus-galli; assay: as above; settings: application to foliage, 141 g/ha
In short: as §2

Chenopodium album = assay: as above; settings: application to foliage, 141 g/ha
In short: as §2

Lolium multiflorum Lam. = assay: as above; settings: application to foliage, 141 g/ha
In short: as §2

Digitaria ciliaris = assay: as above; settings: application to foliage, 141 g/ha
In short: as §2

[3] = system: directly sowed Oryza sativa; assay: Test Example 3: effect on crop by application to foliage (Wagner pot, water depth 0.1-0.5 cm); settings: Nineteenth Table; application to foliage; application herbicide amount 141 g/ha
In short: as §1

CCN(C)c1nnc2c(C(=O)Nc3nnnn3C)ccc(C(F)(F)F)n12 [2-088]
D (herbicidal effect grade) (Leptochloa chinensis): 5 (Herbicidal ratio of 90% or more (almost completely withered)) | E (herbicidal effect grade) (Cyperus difformis): 4 (Herbicidal ratio of 70% or more and less than 90%) | H (herbicidal effect grade) [1]: 5 (Herbicidal ratio of 90% or more (almost completely withered)) | herbicidal effect, J (Alopecurus myosuroides) (Alopecurus myosuroides): 3 (Herbicidal ratio of 40% or more and less than 70%) | herbicidal effect, R (Veronica persica) (Veronica persica): 4 (Herbicidal ratio of 70% or more and less than 90%) | herbicidal effect, Q (Galium spurium) (Galium spurium): 3 (Herbicidal ratio of 40% or more and less than 70%) | herbicidal effect, L (Apera spica-venti.) (Apera spica-venti.): 4 (Herbicidal ratio of 70% or more and less than 90%) | herbicidal effect, G (Setaria viridis) (Setaria viridis): 5 (Herbicidal ratio of 90% or more (almost completely withered)) | herbicidal effect, I (Avena fatua) (Avena fatua): 4 (Herbicidal ratio of 70% or more and less than 90%) | herbicidal effect, M (Abutilon theophrasti) (Abutilon theophrasti): 5 (Herbicidal ratio of 90% or more (almost completely withered)) | herbicidal effect, H (Echinochloa crus-galli var. crus-galli) [2]: 5 (Herbicidal ratio of 90% or more (almost completely withered)) | herbicidal effect, O (Chenopodium album) (Chenopodium album): 5 (Herbicidal ratio of 90% or more (almost completely withered)) | herbicidal effect, K (Lolium multiflorum Lam.) (Lolium multiflorum Lam.): 3 (Herbicidal ratio of 40% or more and less than 70%) | herbicidal effect, F (Digitaria ciliaris) (Digitaria ciliaris): 5 (Herbicidal ratio of 90% or more (almost completely withered)) | b (effect on crop grade) [3]: 3 (Herbicidal ratio of 40% or more and less than 70%)
